Patent publication US8598355B2, “Amide compound” (Astellas Pharma Inc., priority 2008, dated 2013)

Key:
[1] = target: T1, rat EP4 receptor (Rattus norvegicus, UniProt P43114); test: Rat EP4 receptor antagonistic activity by measurement of cAMP amount (rEP4 cAMP HTRF assay, CHO cells); format: cell-based; parameters: expressed in transfected cells; settings: inhibition of cAMP, PGE2 100 nM, CHO cells expressing rat EP4
Protocol: Evaluation Test of Rat EP4 Receptor Antagonistic Activity by Measurement of cAMP Amount
CHO cells in which rat EP4 had been forced to be expressed were seeded in 96-well plates at 2×10^4 cells/100 μL and cultured overnight. The culture medium was replaced with 2 μM Indomethacin/0.1% BSA/alpha-MEM, and further, after 60 minutes, replaced with 1 mM IBMX/2 μM Indomethacin/0.1% BSA/alpha-MEM. After 10 minutes, the test compound was added, and further, after 10 minutes, PGE2 was added at a final concentration of 100 nM. The cells were cultured and reacted in a CO2 incubator (37° C., 5% CO2). After 30 minutes, the culture medium was removed and 100 μL/well of 0.2% Triton X-PBS was added for lysis of the cells. The cAMP contained in this cell lysis solution was measured with a cAMP HiRange kit (Cisbio international). The cell lysis solution was disperesed at 10 μL each into a 384-well U-bottom black microplate (Corning), and a d2 reagent and an europium cryptate reagent were added in this order to each well, each in an amount of 5 μL. It was incubated at room temperature for 60 minutes under light shielding. After incubation, the fluorescence of the cryptate at 620 nm and the fluorescence of the d2 at 655 nm were measured using ARVO1420 (PerkinElmer). The cAMPs of 280, 70, 17.5, 4.38, 1.09, 0.27, and 0.068 nM were measured simultaneously for creating a standard curve. The inhibitory rates were calculated by determining the cAMP amount of each test sample to the value obtained by subtracting the cAMP amount of the group without addition of PGE2 from the cAMP amount of the group with addition of PGE2 of 100 nM. IC50 values are calculated by a Logistic regression method.

[2] = target: T2, EP4 receptor (Homo sapiens, UniProt P35408); test: EP4 receptor antagonistic activity by measurement of cAMP amount in human Jurkat cells (HTRF); format: cell-based; settings: inhibition of cAMP, PGE2 100 nM
T2 construct: endogenous in cells; host or cells: Jurkat cells (human leukemia T lymphoma), no transfection described
Protocol: Evaluation Test of EP4 Receptor Antagonistic Activity by Measurement of cAMP Amount in Human Jurkat Cells
Jurkat cells (derived from human leukemia T lymphoma) were cultured with RPMI1640 (added with 10% fetal bovine serum) using a F75 flask. After proliferation to semiconfluency, indomethacin having a final concentration of 5 μM was added thereto, and the cells were further cultured for 18 hours. The cells were collected in a 15-mL Spitz tube, prepared to be 1×10^6 cells/mL using a Cell Banker (Mitsubishi Kagaku Iatron), and stored at −80° C. until used for assay. The cells were cultured in a CO2 incubator (37° C., 5% CO2).
A cAMP HiRange kit (Cisbio international) was used for cAMP measurement. A test compound, PGE2, and the cells were diluted and prepared with an assay buffer. The test compound was prepared to have a 3-fold concentration relative to the final concentration, PGE2 was prepared to be 300 nM, and the Jurkat cells frozen stored were prepared to be 1×10^6 cells/mL by thawing them at 37° C. To a 384-well U-bottom black microplate (Corning) were added the test compound, the cells, and PGE2 in this order in each in an amount of 5 μL, followed by shaking with a plate shaker and incubating at room temperature for 30 minutes. After incubation, 5 μL of a d2 reagent which had been diluted 0.6-fold with a lysis buffer was added to each well, followed by shaking with a plate shaker. Subsequently, 5 μL of an europium cryptate reagent which had been diluted 0.6-fold with a lysis buffer was added to each well, followed by shaking with a plate shaker and incubating at room temperature for 60 minutes under light shielding. After incubation, the fluorescence of the cryptate at 620 nm and the fluorescence of the d2 at 655 nm were measured using ARVO1420 (PerkinElmer). The cAMPs of 280, 70, 17.5, 4.38, 1.09, 0.27, and 0.068 nM were measured simultaneously for creating a standard curve. All measurements were performed in quadruplicate, and inhibitory rates were calculated by determining the cAMP amount of each test sample to the value obtained by subtracting the cAMP amount of the group without addition of PGE2 from the cAMP amount of the group with addition of PGE2 of 100 nM. IC50 values were calculated by a Logistic regression method.
In this connection, as the “assay buffer” and “lysis buffer” above, those as shown below were used:
Assay buffer; 1×HBSS (Hanks buffered salt solution, Nissui Pharmaceutical Co., Ltd.), 20 mM HEPES (pH 7.4, Nakarai Tesque), 0.5 mM IBMX (3-isobutyl-1-methylxanthine, WAKO), 0.02% CHAPS (Sigma), 0.1% Bovine serum albumin (Sigma), 2 μM Indomethacin (Sigma)
Lysis buffer; 50 mM NaPO4, 0.8 M KF, 1% Triton X-100, 0.2% Bovine serum albumin

[3] = target: T1, rat EP4 receptor; test: Evaluation test of rat EP4 receptor affinity ([3H]PGE2 binding, membrane fraction of HEK293 cells expressing rat EP4); parameters: expressed in transfected cells; host or cells: HEK293 cells, transient transfection with Lipofectamine 2000; membrane fraction; settings: [3H]PGE2 0.3 nM
Protocol: Evaluation Test of Rat EP4 Receptor Affinity
Cell Culturing and Transfection
Using a 10 cm collagen-coated dish (Asahi Glass), HEK293 cells were cultured in D-MEM culture medium, the culture medium was removed at a confluence (90 to 100% density state) and washed with a phosphate buffer saline (PBS), and then the cells were detached with N,N,N′,N′-tetrakis(carboxymethyl)ethylenediamine (EDTA). The number of the cells were counted and seeded on a 15 cm collagen-coated dish to a confluence of 70%. On the next day, to an Opti-MEM culture medium at 1.2 mL/dish was added Lipofectamine 2000 (Invitrogen) at 60 μL/dish, followed by leaving to stand at room temperature for 5 minutes. A plasmid in which rat EP4 (Sequence Number 1) had been inserted into a TA cloning site of pcDNA3.1-V5-His-topo was added thereto at 15 μg/dish. After leaving to stand at room temperature for 30 minutes, the resultant was added to the dish and cultured for 20 to 24 hours. The cell culture was carried out in a CO2 incubator (37° C., 5% CO2).
Preparation of Membrane Fraction
The culture medium was removed by suction, 10 mL of cooled PBS was added thereto per 15 cm dish, and the cells were scraped using a cell scraper (Sumitomo Bakelite). They were washed with cooled PBS (1,200 rpm, 4° C., 5 min), and then suspended in 6 mL of cooled 20 mM Tris-HCl (pH 7.4; Nakalai Tesque Inc., including 5 mM EDTA (Nakalai Tesque Inc.) per dish and the resultant was homogenized using a Polytron and the homogenate was centrifuged (26,000 rpm, 20 min, 4° C.). The obtained precipitate was resuspended in cooled 20 mM Tris-HCl and homogenized again using a Polytron, and the homogenate was centrifuged (26,000 rpm, 20 min, 4° C.). The obtained precipitate was resuspended in 50 mM HEPES (pH 7.5; Dojindo Laboratories) at 1 mL per dish, homogenized using a Polytron, and freeze-stored at −80° C. as a membrane fraction. At this time, a part thereof was used for the measurement of the protein concentration. Measurement of the protein concentration was carried out in duplicate using a Bio-Rad Protein assay kit (Bio-Rad Laboratories) in accordance with the appended standard Protocol.
[^3H]PGE2 50 μL (final concentration 0.3 nM; Perkin Elmer), 100 μL (20 μg/well) of a membrane fraction prepared from the rat EP4 expression cell and 50 μL of a test compound were mixed in a 96-well microplate (Sumitomo Bakelite), incubated at room temperature for 1 hour, filtered by suction on a UniFilter-96 GF/B (Perkin Elmer) using a FilterMate Harvester (Perkin Elmer), and then washed three times with 300 μL/well of a cooled assay buffer. Dilution of [^3H]PGE2 and the membrane fraction was carried out using an assay buffer (50 mM HEPES, 10 mM MgCl2), and dilution of the test compound and the unlabeled PGE2 was carried out using DMSO and an assay buffer. Further, in the case of the addition of a human serum albumin (HSA), dilution was carried out using an assay buffer containing 4% HSA (final concentration 1%; Sigma). The UniFilter-96 GF/B was treated preliminarily by washing twice with 200 μL/well of a cooled assay buffer. The UniFilter-96 GF/B after filtration was dried in a dryer overnight, 50 μL/well of MicroScint20 (Perkin Elmer) was added thereto, and then the radioactivity was measured using a TopCount (Perkin Elmer). For measurement of the non-specific binding, an unlabeled PGE2 (final concentration 1 μM; Cayman) was added. All of the measurements were carried out in duplicate, and the specific binding amount was determined by subtracting the non-specific binding amount from the total binding amount. The Ki value was calculated according to the general methods.
In the connection, Ex represents the below-described Example Compound number.

[4] = target: T1, rat EP4 receptor; test: In vivo rat EP4 receptor antagonistic activity (ONO-4819/LPS, plasma TNF-α); settings: SD rat, oral
Protocol: Evaluation Test of In Vivo Rat EP4 Receptor Antagonistic Activity
A solution of PEG 400:20% Tween 80:aqueous 1 M NaHCO3 solution=1:4:5 of a test compound was orally administered to a SD rat (male, 6-week old) under non-fasting conditions, and after 1 hour, ONO-4819 was administered subcutaneously to the back of the rat. After 30 minutes, Lipopolysaccharide (LPS, 0.01 mg/kg) was administered to the tail vein without anesthesia, and after 60 minutes, 0.5 mL of heparin blood was collected from the fundus under ether anesthesia. The blood sample was centrifuged (3000 rpm, 10 minutes) to separate the plasma, and then the TNF-α concentration in the rat plasma was measured by an ELISA kit (see Hepatology Research Journal, vol. 21, 252-260, 2001). A value obtained by subtracting the TNF-α concentration of the group treated with ONO-4819 from the TNF-α concentration of the group not treated with ONO-4819 was taken as 100%, and the inhibitory rates to the value were calculated for the test compounds.
In this connection, Ex represents the below-described Example compound number.

T1 sequence (P43114 whole entry): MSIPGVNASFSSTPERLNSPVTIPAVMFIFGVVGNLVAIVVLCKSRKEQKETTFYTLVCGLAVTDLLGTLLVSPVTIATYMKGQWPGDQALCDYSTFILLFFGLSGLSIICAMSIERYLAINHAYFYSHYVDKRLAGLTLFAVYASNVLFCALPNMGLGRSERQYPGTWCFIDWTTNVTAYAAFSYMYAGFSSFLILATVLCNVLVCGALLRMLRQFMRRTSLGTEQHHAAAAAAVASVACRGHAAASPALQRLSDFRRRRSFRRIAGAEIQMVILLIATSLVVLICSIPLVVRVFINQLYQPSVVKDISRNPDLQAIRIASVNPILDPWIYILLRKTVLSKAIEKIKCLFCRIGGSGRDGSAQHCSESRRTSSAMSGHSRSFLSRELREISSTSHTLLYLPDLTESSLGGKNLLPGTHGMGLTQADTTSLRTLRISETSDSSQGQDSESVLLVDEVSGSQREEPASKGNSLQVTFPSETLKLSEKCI
T2 sequence (P35408 whole entry): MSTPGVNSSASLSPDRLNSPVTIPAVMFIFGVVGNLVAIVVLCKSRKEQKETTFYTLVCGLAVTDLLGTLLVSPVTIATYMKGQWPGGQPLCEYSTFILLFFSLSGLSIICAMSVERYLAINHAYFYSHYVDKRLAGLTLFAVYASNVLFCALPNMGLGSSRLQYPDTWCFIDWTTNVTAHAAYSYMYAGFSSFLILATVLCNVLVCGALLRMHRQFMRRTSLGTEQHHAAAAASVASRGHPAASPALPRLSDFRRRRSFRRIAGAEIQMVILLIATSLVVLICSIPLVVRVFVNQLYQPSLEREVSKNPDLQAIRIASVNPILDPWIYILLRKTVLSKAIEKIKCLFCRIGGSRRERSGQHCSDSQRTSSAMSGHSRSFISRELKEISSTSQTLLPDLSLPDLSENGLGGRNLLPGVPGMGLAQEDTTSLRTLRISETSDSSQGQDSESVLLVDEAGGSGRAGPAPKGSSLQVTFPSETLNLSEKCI

| Structure (SMILES) | IC50 [1] [pM] | IC50 [2] [pM] | Ki [3] [pM] | melting point | Inhibitory rate (%) ([4]; dose 0.01 mg/kg) | Inhibitory rate (%) ([4]; dose 0.003 mg/kg) |
| --- | --- | --- | --- | --- | --- | --- |
| C[C@H](NC(=O)c1cccc2ccn(Cc3ccc(-c4ccccc4)cc3)c12)c1ccc(C(=O)O)cc1 [Example 3, 4-[(1S)-1-({[1-(biphenyl-4-ylmethyl)-1H-indol-7-yl]carbonyl}amino)ethyl]benzoic acid] | 990 | 110 | 760 |  |  |  |
| O=C(O)c1ccc(CNC(=O)c2cc(C(F)(F)F)cc3ccn(CCOc4ccc(Cl)cc4)c23)cc1 [Example 215] |  |  | 2600 | 208 to 210 °C | 71 |  |
| Cc1cc(C(=O)NC[C@H]2CC[C@H](C(=O)O)CC2)c2c(ccn2Cc2cc3ccccc3cn2)c1 [Example 224] |  |  | 2100 | 251 to 252 °C (dec.) |  | 71 |
